For 12 compounds, IC50 results are on record in EP0199985A2, “Benzoic-acid derivatives, pharmaceutical preparations comprising them and process for preparing these compounds and pharmaceutical preparations” (Grünenthal GmbH, priority 1985, dated 1986).

pIC50: −log10 of the molar value.

The experiment concerns the target T1, 5-Lipoxygenase (Rattus norvegicus, UniProt P12527).
T1 construct: basophile leukämische Leukozyten der Ratte in-vitro gezüchtet; endogenous in cells; whole cells suspended in phosphate buffer, stimulated with A 23187
T1 sequence (P12527 1-673): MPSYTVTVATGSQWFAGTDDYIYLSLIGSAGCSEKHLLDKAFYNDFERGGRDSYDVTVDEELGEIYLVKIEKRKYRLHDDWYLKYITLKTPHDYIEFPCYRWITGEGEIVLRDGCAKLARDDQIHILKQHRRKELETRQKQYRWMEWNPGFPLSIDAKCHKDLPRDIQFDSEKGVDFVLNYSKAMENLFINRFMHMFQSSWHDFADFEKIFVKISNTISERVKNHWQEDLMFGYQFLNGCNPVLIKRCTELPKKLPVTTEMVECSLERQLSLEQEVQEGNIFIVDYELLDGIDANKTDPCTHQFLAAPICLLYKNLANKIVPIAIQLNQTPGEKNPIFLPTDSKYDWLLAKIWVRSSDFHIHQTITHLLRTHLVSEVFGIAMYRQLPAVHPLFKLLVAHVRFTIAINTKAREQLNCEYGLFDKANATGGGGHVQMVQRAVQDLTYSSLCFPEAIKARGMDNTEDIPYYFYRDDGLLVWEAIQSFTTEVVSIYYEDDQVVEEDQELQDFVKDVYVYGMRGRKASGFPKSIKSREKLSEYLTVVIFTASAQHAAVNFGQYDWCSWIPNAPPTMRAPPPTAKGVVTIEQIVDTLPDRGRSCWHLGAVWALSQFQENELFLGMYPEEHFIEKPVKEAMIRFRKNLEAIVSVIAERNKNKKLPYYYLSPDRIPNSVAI
Description: 5-lipoxygenase inhibition in cultured rat basophilic leukemic leukocytes (radiolabelled arachidonic acid, TLC of 5-HETE and LTB4). Format: cell-based, Ratte. The settings on record: rat basophilic leukemic leukocytes in 50 mM potassium phosphate buffer pH 7.4; indomethacin 10 µM, CaCl2 2 mM, labelled arachidonic acid + ionophore A 23 187, 5 min, room temperature; formation of 5-HETE and LTB4. How it is done:
Zur Ermittlung der 5-Lipoxygenasehemmung wurden basophile leukämische Leukozyten der Ratte in-vitro gezüchtet und nach Erreichen einer Zelldichte von ca. 10^6 Zellen pro ml bei 400 g vom Nährmedium abzentrifugiert. Der Rückstand wurde in 50 mM Kaliumphosphatpuffer vom pH 7,4 so suspendiert, daß die Zellzahl […] Zellen pro ml betrug.
Jeweils 1 ml dieser Suspension wurde mit Indomethacin (10 uM) und Calciumchlorid (2 mM) versetzt und in An-oder Abwesenheit einer der Testsubstanzen mit radioaktiv markierter Arachi- 5 donsäure und dem Calcium-lonophor A 23 187 bei Raumtemperatur für 5 Minuten inkubiert. Nach Ansäuern auf pH 5 wurden die unter dem Einfluß der 5-Lipoxygenase gebildeten Arachidonsäuremetaboliten mit Ethylacetat extrahiert und 10 mit einem für die Leukotriene geeigneten Fließmittelgemisch dünnschichtchromatographisch getrennt [vgl. Jakschik et al. Biochem. Biophys. Res. Commun. 102, 624 (1981)]. Die Radioaktivitätsverteilung auf die verschiedenen Metaboliten 15 wurde mit Hilfe eines Dünnschichtscanners gemessen. Setzt man die prozentualen Bildungsanteile der 5-Lipoxygenaseprodukte (5-HETE und LTB4) zu der Menge bzw. Konzentration der eingesetzten Gesamtradioaktivität bzw. der Testsubstanz 20 der Formel I in Relation, so läßt sich der IC50-Wert-(d. h. die Konzentration, die eine 50 %-ige Hemmung der 5-Lipoxygenase bewirkt) ermitteln.
The pIC50 is the negative decadic logarithm of the IC50, by convention in mol/L. As to `CCCCCC(O)/C=C/C#CCC#CCC#Cc1cccc(C(=O)OC)c1` (stereo not drawn) [Beispiel 1, 3-(11'-Hydroxy-hexadec-9'E-en-1',4',7'-triin-1'-yl)-benzoesäuremethylester], the pIC50 is 5.77. For `COC(=O)c1cccc(C#CCC#CCC#C/C=C/C(O)C2CCCCC2)c1` (stereo not drawn) [Beispiel 4, 3-(11'-Cyclohexyl-11'-hydroxy-undec-9'E-en-1',4',7-triin-1'-yl)-benzoesäuremethylester] the value was 5.85; for `CCCCCC(O)/C=C/C=C\C/C=C\C/C=C\c1ccc(C(=O)OC)cc1` (stereo not drawn) [Beispiel 7, 4-(11'-Hydroxy-hexadeca-1'Z,4'Z,7'Z,9'E-tetraen-1'-yl)-benzoesäuremethylester], 6.00. For `CN(O)C(=O)c1ccc(C#CCCCCCCC#CCO)cc1` [Beispiel 11, 4-(11'-Hydroxy-undeca-1',9'-diin-1'-yl)-N-methylbenzhydroxamsäure] the value was 6.70.

Regarding `CN(O)C(=O)c1cccc(C#CCCCCCCC#CCO)c1` [Beispiel 16], the pIC50 is 6.00. Consider `O=C(c1cccc(C#CCCCCCCC#CCO)c1)N1CCCCC1` [Beispiel 17, 3-(11 '-Hydroxy-undeca-1',9'-diin-1'-yl)-benzoesäurepiperidid], for which the pIC50 is 5.64. `CCOC(=O)c1cccc(C#CCCCCCCC#CCO)c1` [Beispiel 18, 3-(11 '-Hydroxy-undeca-1',9'-diin-1-yl)-benzoesäureethylester]: the pIC50 is 5.12. Turning to `CN(O)C(=O)c1cccc(C#CCCCCCCC#CC(O)C2CCCCC2)c1` (stereo not drawn) [Beispiel 23biii, 3-(11'-Cyclohexyl-11'-hydroxy-undeca-1',9'-diin-1'-yl)-N-methylbenzhydroxamsäure], the pIC50 is 6.30. Take `CCCN(CCC)C(=O)c1cccc(C#CCCCCCCC#CCO)c1` [Beispiel 24g, 3-(11'-Hydroxy-undeca-1',9'-diin-1'-yl)-benzoesäure-[N,N-di-(n-propyl)]-amid]: the pIC50 was 5.62.

In the case of `CC(=O)ON(C)C(=O)c1cccc(C#CCCCCCCC#CCO)c1` [Beispiel 24l, 3-(11'-Hydroxy-undeca-1',9'-diin-1'-yl)-benzoesäure-(N-methyl-N-acetoxy)-amid], the pIC50 is 6.30.

Turning to `CC(C)N(C(=O)c1cccc(C#CCCCCCCC#CCO)c1)C(C)C` [Beispiel 24n, 3-(11'-Hydroxy-undeca-1',9'-diin-1'-yl)-benzoesäure-[N,N-di-(isopropyl)]-amid], the pIC50 is 5.80. In the case of `CCCCCNC(=O)c1cccc(C#CCCCCCCC#CCOC(C)=O)c1` [Beispiel 27a, 3-(11 '-Acetoxy-undeca-1',9'-diin-1'-yl)-benzoesäure-n-pentylamid], the pIC50 is 5.15.
